The structures appear in SMILES notation.

A short description of this test: Superoxide scavenging activity (xanthine oxidase / cytochrome c reduction). It is filed as biochemical. The source says: Method 7: Method for Determination of Superoxide Scavenging Activity. The enzymatic system, which uses xanthine oxidase (a purified enzyme preparation produced by “Sigma”), was used to generate superoxide anions in high yield and in a controlled fashion. The conversion of xanthine to […] by this enzyme generates amounts of superoxide anions and reduction of ferricytochrome c to ferrocytochrome c was used as a sensitive measure of superoxide levels. The measurements of ferrocytochrome c level (550 nm), when tested bioactive compositions were added to the reaction system, allow for determination of their superoxide scavenging activity. The final concentrations per well were for cytochrome c 75 μM, xanthine 425 μm/L, and xanthine oxidase 10 mU/ml.

As to `O=C(/C=C/c1ccc(O)c(O)c1)O[C@H](Cc1ccc(O)c(O)c1)C(=O)O` [rosmarinic acid], the “ICR50 of positive control” value was found to be 26.5 µg/mL.

The values above are taken from patent publication US10004777B2, “Bioactive compositions from Theacea plants and processes for their production and use” (ISP Investments Inc., priority 2004, dated 2018).
